Experimental data reported in patent US20090069424A1, “TGF-alpha expression inhibitors” (NIKKEN CHEMICALS CO., LTD., priority 2002, published 2009).

Tests used:
[1] = system: TGF-α expression in oval cells; assay: Induction of TGF-α positive oval cells of a rat by 3′-MeDAB, anti TGF-α immunohistological staining of liver; assay type: in vivo
Procedure: Male Fischer rats (F344/N Slc, 6-week old) were used as an animal, and the rats were given with solid feed prepared to contain a hepatic chemical carcinogen 3′-MeDAB in a ratio of 0.06% for four weeks to induce oval cells. NIK-333 was suspended in soybean oil, and a dose of 80 mg/kg was orally administered to each rat for four weeks (once/a day) along with the administration of 3′-MeDAB. To a control group, soybean oil (5 mL/kg) was orally administered. After 4 weeks from the start of the administration of 3′-MeDAB, livers were extirpated under anesthesia. The livers were subjected to 10% formalin fixation and paraffin embedding, and further to immunological staining by using an anti TGF-α antibody. TGF-α expression levels were analyzed under microscope.
FIGS. 1 to 3 are photographs showing inhibitory effects on induction of TGF-α positive oval cells induced by the four-week administration of 3′-MeDAB, when 80 mg/kg/day of NIK-333 was simultaneously administered for four weeks (immunohistological staining by using the anti TGF-α antibody). Similar observations were obtained in other animals which were analyzed at the same time.

[2] = system: TGF-α expression in non-tumor hepatic tissue; assay: TGF-α expression in non-tumor hepatic tissue of a rat after DEN administration, anti TGF-α immunohistological staining; assay type: in vivo; settings: 80 mg/kg/day orally for 14 weeks from one week after 5-week DEN; control strongly positive; FIGS. 6 and 9
Procedure: Male Fischer rats (F344/N Slc, 6-week old) were used as an animal, and the rats were administered with a hepatic chemical carcinogen DEN for 5 weeks in a form of drinking water (concentration: 40 ppm), and then bred with normal drinking water for successive 15 weeks to induce hepatocellular carcinoma. NIK-333 was suspended in soybean oil, and a dose of 80 mg/kg was orally administered to each rat for 14 weeks (once/a day) from one week after the end of the administration of DEN. To a control group, soybean oil (5 mL/kg) was orally administered. After 20 weeks from the start of the administration of DEN, livers were extirpated under anesthesia. The livers were subjected to 10% formalin fixation and paraffin embedding, and further to immunological staining by using an anti TGF-α antibody. TGF-α expression levels were analyzed under microscope.
FIGS. 4 to 6 are photographs showing inhibitory effects on TGF-α expression in a non-tumor hepatic tissue, when the administration was ceased for one week after the 5-week treatment with DEN, and then 80 mg/kg/day of NIK-333 was administered for 14 weeks (immunohistological staining by using an anti TGF-α antibody). Similar observations were obtained in other animals which were analyzed at the same time.

[3] = system: TGF-α expression in oval cells; assay: TGF-α expression in oval cells in a rat induced by D-galactosamine hydrochloride, anti TGF-α immunohistological staining; assay type: in vivo; settings: 200 mg/kg/day orally for four days; control strongly positive; FIG. 15
Procedure: Male SD rats (Crj/CD (SD), 6-week old) were used as an animal, and D-galactosamine hydrochloride (5 ml/kg) prepared as 200 mg/mL with physiological saline was intraperitoneally administered once to each rat to induce oval cells. NIK-333 was suspended in soybean oil, and a dose of 200 mg/kg was orally administered to each rat for 1 to 6 days. To the control group, soybean oil (2 mL/kg) was orally administered. From the next day to 7 days after the start of the administration, the livers were extirpated under anesthesia with passage of time. The livers were subjected to 10% formalin fixation and paraffin embedding, and further to immunological staining by using an anti TGF-α antibody. TGF-α expression levels were analyzed under microscope.
FIGS. 13 to 15 are photographs showing inhibitory effects on TGF-α expression in oval cells induced by the administration of D-galactosamine hydrochloride, when 200 mg/kg/day of NIK-333 was administered for four days (immunohistological staining using an anti TGF-α antibody). Similar observations were obtained in other animals which were analyzed at the same time.

hepatoma = settings: clinical, cited from earlier work

Which results are given for `CC(C)=CCC/C(C)=C/CC/C(C)=C/C=C/C(C)=C/C(=O)O` [NIK-333, (2E,4E,6E,10E)-3,7,11,15-tetramethyl-2,4,6,10,14-hexadecapentaenoic acid]?
TGF-α observation of oval cells expressed with 3′-MeDAB ([1]; 80 mg/kg/day orally for four weeks along with 0.06% 3′-MeDAB feed, control strongly positive, FIG. 3): weakly positive; number of oval cells with strongly positive TGF-α observation, expressed with 3′-MeDAB ([1]; 80 mg/kg/day orally for four weeks along with 3′-MeDAB, versus control, FIG. 12): reduced; TGF-α observation in hepatic tissues surrounding the central vein, expressed by DEN [2]: almost negative; TGF-α observation of oval cells expressed by D-galactosamine hydrochloride [3]: weakly positive; side effect such as dysfunction of liver and those with other retinoids (hepatoma; during one-year administration): almost no side effect; recurrence after radical cure of hepatoma (hepatoma; long-term administration for one year): significantly suppressed
